Assay in all cases: Broth two-fold serial dilution MIC test
The subject of one assay is Aspergillus niger. The class given is cell-based, Aspergillus niger (ATCC 6275). To be noted: Table 2, Anig, TSB media. In short, it runs like this:
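Two-fold broth serial dilution from 500 ppm down to 0.25 ppm, compound stock in acetone/methanol/water 5:3:2. Vessels inoculated with standardized spore suspension harvested from agar slants, incubated at a species-appropriate temperature, then scored for growth/no growth. MIC is the lowest concentration giving complete growth inhibition.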

The subject of the next assay is Pseudomonas aeruginosa. It counts as cell-based, Pseudomonas aeruginosa (ATCC 15442). Conditions: Table 2, Psae. The gist of the method: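 Broth two-fold serial dilution MIC (500 to 0.25 ppm) was run against Pseudomonas aeruginosa, with compound from 1% stock in acetone/methanol/water 5:3:2. Vessels inoculated with standardized broth-grown cells were incubated, then scored for growth. MIC is the lowest concentration giving complete growth inhibition.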

A further assay has as its system Escherichia coli. The class given is cell-based, Escherichia coli (ATCC 11229). To be noted: Table 2, Ecol. The gist of the method:
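Broth two-fold serial dilutions ran from 500 down to 0.25 ppm, prepared from a stock in acetone/methanol/water (5:3:2). Each tube received a standardized bacterial suspension and was incubated at a temperature suited to the species. MIC is the lowest concentration giving complete growth inhibition.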

The next assay deals with Staphylococcus aureus. It counts as cell-based, Staphylococcus aureus (ATCC 6538). To be noted: Table 2, Saur. The gist of the method:
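Broth two-fold serial dilution from 500 ppm down to 0.25 ppm, compound delivered from acetone/methanol/water stock, inoculated with standardized cell suspension and incubated at an organism-appropriate temperature. MIC is the lowest concentration giving complete growth inhibition.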

The mark [1] stands for this setting: Aspergillus niger, read-out: MIC.
Setting [2] is: Pseudomonas aeruginosa, M9G media, read-out: MIC.
[3] abbreviates: Pseudomonas aeruginosa, TSB media, read-out: MIC.
Where [4] appears, read: Escherichia coli, M9G media, read-out: MIC.
Setting [5] is: Escherichia coli, TSB media, read-out: MIC.
[6] abbreviates: Staphylococcus aureus, M9G media, read-out: MIC.
Setting [7] is: Staphylococcus aureus, TSB media, read-out: MIC.

Where two headings read alike, the source gives them in different places.

`CCCCCCCCCCCCCCCC[N+]1(CC#CI)CCCC1` [Compound 35, 1-hexadecyl-1-(3-iodopropargyl)-pyrrolidinium methanesulfonate]: the MIC is 4 ppm in the assay on Aspergillus niger; more than 500 ppm in the assay on Pseudomonas aeruginosa (M9G media); more than 500 ppm against Pseudomonas aeruginosa (TSB media); 4 ppm in the assay with Escherichia coli (M9G media); 63 ppm with Escherichia coli (TSB media); 0.5 ppm with Staphylococcus aureus (M9G media). In the assay on Staphylococcus aureus (TSB media), this molecule had an MIC of 0.25 ppm.

Turning to `CCCCCCCCCCCCCCC[N+]1(CC#CI)CCCC1` [Compound 38, 1-pentadecyl-1-(3-iodopropargyl)-pyrrolidinium methanesulfonate], the MIC is 0.5 ppm in the assay with Aspergillus niger; 32 ppm against Pseudomonas aeruginosa (M9G media); 63 ppm in the assay on Pseudomonas aeruginosa (TSB media); 1 ppm against Escherichia coli (M9G media); 8 ppm with Escherichia coli (TSB media); less than 0.25 ppm in the assay on Staphylococcus aureus (M9G media). This molecule also had an MIC in the assay on Staphylococcus aureus (TSB media) of less than 0.25 ppm.

Consider `CCCCCCCCCCCCCCCC[N+]1(CC#CI)CC(C)OC(C)C1` (centres unmarked) [Compound 48, 4-hexadecyl-4-(3-iodopropargyl)-2,6-dimethylmorpholinium methanesulfonate], for which the MIC in the assay on Aspergillus niger is reported as 1 ppm; against Pseudomonas aeruginosa (M9G media), 8 ppm; in the assay on Pseudomonas aeruginosa (TSB media) it was 8 ppm; in the assay on Escherichia coli (M9G media), 2 ppm; in the assay on Staphylococcus aureus (M9G media) it was less than 0.25 ppm; in the assay on Staphylococcus aureus (TSB media), 0.5 ppm.

For the molecule `CCCCCCCCCCCC[N+]1(CC#CI)CCOCC1` [Compound 90, 4-dodecyl-4-(3-iodopropargyl)-morpholinium methanesulfonate], the MIC in the assay on Aspergillus niger (setting [1]) came out at 16 µg/mL; in the assay with Pseudomonas aeruginosa (setting [2]) it was 16 µg/mL; in the assay on Pseudomonas aeruginosa (setting [3]), 125 µg/mL; in the assay on Escherichia coli (setting [4]) it was 2 µg/mL; with Escherichia coli (setting [5]) it was 4 µg/mL; in the assay on Staphylococcus aureus (setting [6]), 2 µg/mL. Moreover, in the assay on Staphylococcus aureus (setting [7]), the MIC is 4 µg/mL.

`CCCCCCCCCC[N+]1(CC#CI)CCCC1` [Compound 78, 1-decyl-1-(3-iodopropargyl)-pyrrolidinium bromide]: the MIC in the assay on Aspergillus niger is 8 ppm; with Pseudomonas aeruginosa (M9G media), 250 ppm; in the assay on Pseudomonas aeruginosa (TSB media), 500 ppm; in the assay with Escherichia coli (M9G media) it was 2 ppm; against Escherichia coli (TSB media), 4 ppm; with Staphylococcus aureus (M9G media), 0.25 ppm. The molecule also displayed an MIC in the assay on Staphylococcus aureus (TSB media) of 2 ppm.

Turning to `OCCCCCCCCC[N+]1(CC#CI)CCCC1` [Compound 5, 1-(9-hydroxynonyl)-1-(3-iodopropargyl)-pyrrolidinium 4-methylbenzenesulfonate], the MIC was 250 µg/mL in the assay with Aspergillus niger (setting [1]); more than 500 µg/mL in the assay with Pseudomonas aeruginosa (setting [2]); more than 500 µg/mL in the assay with Pseudomonas aeruginosa (setting [3]); more than 500 µg/mL with Escherichia coli (setting [4]); more than 500 µg/mL in the assay with Escherichia coli (setting [5]); 63 µg/mL with Staphylococcus aureus (setting [6]). The MIC in the assay on Staphylococcus aureus (setting [7]) was determined as 63 µg/mL.

As for `CCCCCCOC(=O)CCCCC[N+]1(CC#CI)CCOCC1` [Compound 81], the MIC with Aspergillus niger (setting [1]) is 125 µg/mL; in the assay with Pseudomonas aeruginosa (setting [2]), more than 500 µg/mL; with Pseudomonas aeruginosa (setting [3]) it was more than 500 µg/mL; in the assay with Escherichia coli (setting [5]) it was 64 µg/mL; in the assay on Escherichia coli (M9G media) it was 64 ppm; in the assay on Staphylococcus aureus (setting [6]), 4 µg/mL. The MIC with Staphylococcus aureus (setting [7]) was 16 µg/mL.

For `CCCCCCCCCCCCOC(=O)C[N+]1(CC#CI)CCOCC1` [Compound 76, 4-(dodecyloxycarbonyl)methyl-4-(3-iodopropargyl)-morpholinium methanesulfonate], the MIC in the assay on Aspergillus niger is 32 ppm; in the assay on Pseudomonas aeruginosa (M9G media), 64 ppm; against Pseudomonas aeruginosa (TSB media) it was 125 ppm; against Escherichia coli (M9G media) it was 2 ppm; with Escherichia coli (TSB media), 8 ppm; against Staphylococcus aureus (M9G media), 0.25 ppm. In the assay with Staphylococcus aureus (TSB media), this molecule came in with an MIC of 2 ppm.

`CCCCCCCCCCCCOC(=O)C[N+]1(CC#CI)CCCC1` [Compound 63, 1-(dodecyloxycarbonyl)methyl-1-(3-iodopropargyl)-pyrrolidinium 4-methylbenzenesulfonate]: the MIC was found to be 2 ppm in the assay on Aspergillus niger; 64 µg/mL with Pseudomonas aeruginosa (setting [2]); 125 ppm in the assay on Pseudomonas aeruginosa (TSB media); 2 µg/mL with Escherichia coli (setting [4]); 4 µg/mL with Escherichia coli (setting [5]); 2 ppm against Staphylococcus aureus (M9G media). The molecule further had an MIC with Staphylococcus aureus (TSB media) of 4 ppm.

In the case of `CCCCCCCCCCCCCCCC[N+]1(CC#CI)CCCCC1` [Compound 61, 1-hexadecyl-1-(3-iodopropargyl)-piperidinium methanesulfonate], the MIC against Aspergillus niger was found to be 8 ppm; in the assay with Pseudomonas aeruginosa (M9G media), 16 ppm; against Pseudomonas aeruginosa (TSB media), 125 ppm; in the assay with Escherichia coli (M9G media) it was 8 ppm; in the assay with Escherichia coli (TSB media) it was 8 ppm; in the assay with Staphylococcus aureus (M9G media), 2 ppm. For the same molecule, in the assay with Staphylococcus aureus (TSB media), the MIC amounted to 2 ppm.

On to `CCCCCCCCCCCCCC[N+]1(CC#CI)CC(C)OC(C)C1` (centres unmarked) [Compound 43, 4-tetradecyl-4-(3-iodopropargyl)-2,6-dimethylmorpholinium 4-methylbenzenesulfonate], for which the MIC is 1 µg/mL in the assay with Aspergillus niger (setting [1]); 2 µg/mL in the assay on Pseudomonas aeruginosa (setting [2]); 4 µg/mL in the assay with Pseudomonas aeruginosa (setting [3]); less than 0.25 µg/mL in the assay with Escherichia coli (setting [4]); 0.5 µg/mL in the assay with Escherichia coli (setting [5]); less than 0.25 µg/mL with Staphylococcus aureus (setting [6]). In addition, the MIC with Staphylococcus aureus (setting [7]) was determined as 0.5 µg/mL.

As for `CCCCCCCCCCCCCC[N+]1(CC#CI)CCOCC1` [Compound 86, 4-tetradecyl-4-(3-iodopropargyl)-morpholinium n-butylsulfonate], the MIC amounted to 8 ppm with Aspergillus niger; 8 ppm against Pseudomonas aeruginosa (M9G media); 32 ppm against Pseudomonas aeruginosa (TSB media); 2 ppm with Escherichia coli (M9G media); 8 ppm against Escherichia coli (TSB media); 0.5 ppm in the assay on Staphylococcus aureus (M9G media). In the assay with Staphylococcus aureus (TSB media), this molecule came in with an MIC of 1 ppm.

Consider `CCCCCCCCCCOC(=O)CC[N+]1(CC#CI)CCOCC1` [Compound 95, 4-[2-(decyloxycarbonyl)]ethyl-4-(3-iodopropargyl)-morpholinium methanesulfonate], for which the MIC with Aspergillus niger (setting [1]) is 32 µg/mL; with Pseudomonas aeruginosa (setting [2]), 500 µg/mL; with Pseudomonas aeruginosa (setting [3]), 500 µg/mL; in the assay with Escherichia coli (setting [4]), 16 µg/mL; with Escherichia coli (setting [5]), 64 µg/mL; with Staphylococcus aureus (setting [6]), 32 µg/mL. Also, the MIC in the assay with Staphylococcus aureus (setting [7]) amounted to 64 µg/mL.

Regarding `CCCCCCCCCCOC(=O)CC[N+]1(CC#CI)CCCC1` [Compound 98, l-[2-(decyloxycarbonyl)]ethyl-1-(3-iodopropargyl)-pyrrolidinium methanesulfonte], the MIC in the assay on Aspergillus niger was found to be 16 ppm; with Pseudomonas aeruginosa (M9G media), 500 ppm; against Pseudomonas aeruginosa (TSB media), 500 ppm; in the assay on Escherichia coli (M9G media), 16 ppm; in the assay on Escherichia coli (TSB media), 32 ppm; in the assay with Staphylococcus aureus (M9G media), 8 ppm. Also, the MIC in the assay with Staphylococcus aureus (TSB media) was 32 ppm.

As to `CCCCCCCCCCCCCCCC[N+]1(CC#CI)CC(C)OC(C)C1` (centres unmarked) [Compound 46, 4-hexadecyl-4-(3-iodopropargyl)-2,6-dimethylmorpholinium 4-methylbenzenesulfonate], the MIC in the assay with Aspergillus niger was 2 ppm; with Pseudomonas aeruginosa (setting [2]), 16 µg/mL; with Pseudomonas aeruginosa (setting [3]) it was 16 µg/mL; in the assay with Escherichia coli (M9G media), 8 ppm; in the assay with Escherichia coli (TSB media) it was 8 ppm; in the assay with Staphylococcus aureus (setting [6]), less than 0.25 µg/mL. Further, in the assay with Staphylococcus aureus (setting [7]), the MIC is less than 0.25 µg/mL.

Regarding `CCCCCCCCCCCCCC[N+]1(CC#CI)CC=CCC1` (centres unmarked) [Compound 53, 1-(tetradecyl)-1-(3-iodopropargyl)-1,2,3,6-tetrahydropyridinium benzenesulfonate], the MIC with Aspergillus niger (setting [1]) was less than 0.25 µg/mL; in the assay with Pseudomonas aeruginosa (setting [2]) it was 8 µg/mL; in the assay on Pseudomonas aeruginosa (setting [3]) it was 16 µg/mL; in the assay with Escherichia coli (setting [4]), 2 µg/mL; in the assay on Escherichia coli (setting [5]), 1 µg/mL; in the assay on Staphylococcus aureus (setting [6]), less than 0.25 µg/mL. For the same molecule, the MIC with Staphylococcus aureus (setting [7]) is less than 0.25 µg/mL.

For the molecule `CCCCCCCCCCOC(=O)C[N+]1(CC#CI)CCOCC1` [Compound 66, 4-(decyioxycarbonyl)methyl-4-(3-iodopropargyl)-morpholiniurn 4methylbenzenesulfonate], the MIC in the assay with Aspergillus niger (setting [1]) was 125 µg/mL; in the assay on Pseudomonas aeruginosa (setting [2]) it was 64 µg/mL; in the assay with Pseudomonas aeruginosa (setting [3]), 250 µg/mL; with Escherichia coli (setting [4]) it was 2 µg/mL; with Escherichia coli (setting [5]), 8 µg/mL; with Staphylococcus aureus (setting [6]), 0.5 µg/mL. The MIC with Staphylococcus aureus (setting [7]) is 8 µg/mL.

As for `CCCCCCCCCC[N+]1(CC#CI)CCCC1` [Compound 11], the MIC in the assay on Aspergillus niger (setting [1]) was 4 µg/mL; in the assay with Pseudomonas aeruginosa (setting [2]) it was 250 µg/mL; in the assay on Pseudomonas aeruginosa (setting [3]), 500 µg/mL; against Escherichia coli (M9G media) it was 16 ppm; with Escherichia coli (TSB media), 32 ppm; in the assay on Staphylococcus aureus (M9G media), 2 ppm. In the assay on Staphylococcus aureus (TSB media), this molecule showed an MIC of 16 ppm.

In the case of `OCCCCCCCC[N+]1(CC#CI)CCCC1` [Compound 3, 1-(8-hydroxyoctyl)-1-(3-iodopropargyl)-pyrrolidinium 4-methylbenzenesulfonate], the MIC in the assay on Aspergillus niger (setting [1]) is more than 500 µg/mL; in the assay on Pseudomonas aeruginosa (setting [2]), more than 500 µg/mL; in the assay with Pseudomonas aeruginosa (setting [3]), more than 500 µg/mL; in the assay on Escherichia coli (setting [5]) it was more than 500 µg/mL; with Staphylococcus aureus (setting [6]) it was 500 µg/mL; with Staphylococcus aureus (setting [7]), more than 500 µg/mL.
